From publication PMC7688903 (Frontiers in Microbiology, 2020)
Values after ≈ are worked out from the molar mass of the structure shown. “Also recorded” adds a separate entry of the source. Where a SMILES comes first, the peptide text is derived from it. Where no end group is shown, it is not given here. [ ]: non-standard residue; d: D form. 2Thi = N[C@@H](Cc1cccs1)C(=O)O

Columns and labels:
[1] = plasma from healthy volunteers; conditions: human, 37°C, up to 36 h
Trypsin = test: trypsin in 0.1 M NH4HCO3 buffer (pH 8.2); conditions: 37°C, up to 24 h
E. coli ATCC 25922 = format: cell-based, Escherichia coli; conditions: ATCC 25922, 20 h
Description: (§1) The antimicrobial activities of the peptides were tested against E. coli ATCC 25922, P. aeruginosa ATCC 27853, carbapenem-resistant P. aeruginosa SIPI-012, A. baumannii ATCC 19606, carbapenem-resistant A. baumannii SIPI-025, S. aureus ATCC 25923, and C. albicans ATCC 10231. The minimum inhibitory concentration (MIC) values were determined using the microdilution method according to Clinical and Laboratory Standards Institute guidelines ([CLSI, 2008], [2012]). The peptides were dissolved in 10 mM PB to a concentration of 1280 μg/mL as stock solutions.
(§2) For inoculum preparation of bacteria, morphologically similar colonies selected from fresh MH agar plates were transferred using a loop into approximately 10 mL of MH broth in a capped test tube and vortexed. The suspension was adjusted with MH broth to achieve a turbidity equivalent to a 0.5 McFarland standard (BaSO4 solution prepared spectrophotometrically). A working suspension was prepared by making a 1:15 dilution followed by a 1:20 dilution of the stock suspension with MH broth medium to obtain approximately 5 × 10^5 CFU/mL. For inoculum preparation of yeast, five fresh colonies of approximately 1 mm diameter were picked from 24-hour-old cultures of C. albicans and suspended in 5 mL of sterile 0.85% saline. The resulting suspension was vortexed and the cell density was adjusted by adding sufficient sterile saline to achieve a turbidity equivalent to a 0.5 McFarland standard. A working suspension was prepared by making a 1:100 dilution followed by a 1:20 dilution of the stock suspension with RPMI 1640 broth medium to obtain 0.5 × 10^3 to 2.5 × 10^3 CFU/mL. Intermediate twofold dilutions of the peptides were prepared in MH broth and RPMI 1640 medium, and 90 μL aliquots were added to each well in addition to 10 μL of the inoculum prepared above.
(§3) Each plate included a growth control well and a sterility (uninoculated) control well. Colistin, vancomycin hydrochloride, and amphotericin B were used as positive controls for gram-negative bacteria, gram-positive bacteria, and fungi, respectively. The bacterial and fungal plates were incubated at 37°C for 20 h and 35°C for 48 h, respectively, both under ambient atmosphere. The inhibition of microbial growth was assessed visually. The MICs were determined from independent triplicate assays.

P. aeruginosa ATCC 27853 = format: cell-based, Pseudomonas aeruginosa; conditions: ATCC 27853, 20 h
Description: as §1, §2, §3

[2] = test system: carbapenem-resistant P. aeruginosa (CRPA) SIPI-012; format: cell-based, Pseudomonas aeruginosa; conditions: carbapenem-resistant (CRPA) SIPI-012, 20 h
Description: as §1, §2, §3

A. baumannii ATCC 19606 = format: cell-based, Acinetobacter baumannii; conditions: ATCC 19606, 20 h
Description: as §1, §2, §3

[3] = test system: carbapenem-resistant A. baumannii (CRAB) SIPI-025; format: cell-based, Acinetobacter baumannii; conditions: carbapenem-resistant (CRAB) SIPI-025, 20 h
Description: as §1, §2, §3

S. aureus ATCC 25923 = test: microbe, parasite or virus in culture; format: cell-based, Staphylococcus aureus; conditions: ATCC 25923, 20 h
Description: as §1, §2, §3

C. albicans ATCC 10231 = test: microbe, parasite or virus in culture; format: cell-based, Candida albicans; conditions: ATCC 10231, 48 h
Description: as §1, §2, §3

[4] = test system: proteases secreted by S. aureus ATCC 25923; test: in vitro
Description: The stabilities of the peptides toward proteases secreted by E. coli ATCC 25922, P. aeruginosa ATCC 27853, A. baumannii ATCC 19606, S. aureus ATCC 25923, and C. albicans ATCC 10231 were also examined. Microbial supernatants were prepared by resuspending single colonies of each strain in 20 mL of an appropriate culture medium followed by incubation at 37°C overnight. MH broth and 2% tryptone/2% dextrose were used as the culture media for bacteria and yeast, respectively. Each culture was then centrifuged at 12,000 × g for 10 min and the supernatant was adjusted to pH 8.0 with HCl or NaOH and then filtered through a 0.22 μm sterile filter membrane ([Zaet et al., 2017]). The peptides were then dissolved in the filtered supernatants to a concentration of 0.5 mg/mL, and the peptide-free supernatants were used as negative controls. The samples were incubated at 37°C for 24 h in a water bath and then analyzed by RP-HPLC as described above.

human erythrocytes = test: Hemolytic activity assay; format: cell-based; conditions: human RBC in PB, 37°C, 1 h, OD420, total lysis control 0.1% SDS, three technical replicates
Description: Whole blood was obtained from a healthy volunteer. The red blood cells (RBC) were then centrifuged (800 × g, 10 min), washed twice with PB, resuspended in 1 mL of PB, and incubated with various concentrations of the peptides (32–128 μM) at 37°C for 1 h. As a positive control, total lysis of the RBC was accomplished by incubation with 0.1% SDS. For each condition, three technical replicates were performed. After incubation, the RBC were centrifuged at 800 × g for 10 min and the amount of hemoglobin released into the supernatant was determined by measuring the optical density OD420 using a SpectraMax i3x microplate reader (Molecular Devices) ([Zaet et al., 2017]).

RAW 264.7 cells = test: Cell viability assay (MTT); format: cell-based, mouse; conditions: 1–128 μM peptide in DMEM with 4% FBS, 42 h, 595 nm, triplicate
Description: The peptides were dissolved in ddH2O to a concentration of 256 μM. RAW 264.7 cells were cultured in 100 μL of DMEM containing 10% FBS and seeded at a density of 1 × 10^4 cells in a 96-well culture plate. The plate was incubated at 37°C under 5% CO2 atmosphere overnight. After attaining 80% confluency, the cells were treated with various concentrations of the peptides (1–128 μM) dissolved in DMEM containing 4% FBS for 42 h. Cytotoxicity was determined using the MTT tetrazolium reduction assay and quantified spectrophotometrically at 595 nm using a SpectraMax i3x microplate reader. The cell viability was calculated with respect to control samples treated only with DMEM containing 4% FBS ([Khara et al., 2016]). Each test was done in triplicate and the concentration required for 50% inhibition of viability (IC50) was determined.

human plasma proteases = test: in vitro
Description: The peptides were mixed with plasma from healthy volunteers to a final concentration of 0.1 mg/mL and incubated at 37°C. Aliquots (20 or 40 μL) were removed after 0, 2, 4, 6, 8, 12, 24, and 36 h, mixed with 0.05% TFA to a final concentration of 0.01 mg/mL, and incubated on ice for 10 min. After centrifugation (12,000 × g, 5 min), the supernatant was stored at −20°C. The samples were analyzed as described in section “Hydrophobicity” and quantified as described in section “Stability Toward Tryptic Degradation.” All stability tests were performed at least in triplicate. The identities of the metabolites after 12 h of degradation by plasma proteases were determined by LC-MS on a Waters Acquity UPLC-QDa system.

In the case of DapHorLFDapDapLLDabYLHorDabThi, the fragment found [1] is reported as “(Dap) HorLFDapDapLLDabYLHorDabThi 2–14, major, 12 h” and the fragment found (Trypsin) is reported as “(Dap) HorLFDap (Dap) 2–5, major, 18 h; also recorded: DapHorLFDapDapLLDab (Y) 1–9, major, 18 h; also recorded: DapHorLFDapDapLLDabYLHor (Dab) 1–12, major, 18 h; also recorded: (Dap) HorLFDapDapLLDabYLHorDabThi 2–14, major, 18 h”.
In the case of DabRLThiDapDabLLDabYLHorDabF, the fragment found [1] is reported as “(R) LThiDapDabLLDabYLHorDab F 3–14, major, 12 h; also recorded: (Dab) RLThiDapDabLLDabYLHorDabF 2–14, major, 12 h” and the fragment found (Trypsin) is reported as “(Dab) RLThiDapDabLLDab (Y) 2–9, major, 18 h; also recorded: (R) LThiDapDabLLDabYLHor (Dab) 3–12, major, 18 h”.
For krLFkkLLKYLRkF, the fragment found [1] was “(K) YLRkF 10–14, major, 12 h; also recorded: krLFkkLL (K) 1–8, major, 12 h” and the fragment found (Trypsin) was “(K) YLR (k) 10–12, major, 18 h; also recorded: krLFkkLLK (Y) 1–9, major, 18 h; also recorded: (K) YLRkF 10–14, major, 18 h”.
`CC(C)C[C@H](NC(=O)[C@H](Cc1ccc(O)cc1)NC(=O)[C@H](CCCCN)NC(=O)[C@H](CC(C)C)NC(=O)[C@H](CC(C)C)NC(=O)[C@H](CCCCN)NC(=O)[C@H](CCCCN)NC(=O)[C@H](Cc1cccs1)NC(=O)[C@H](CC(C)C)NC(=O)[C@H](CCCNC(=N)N)NC(=O)[C@@H](N)CCCCN)C(=O)N[C@@H](CCCNC(=N)N)C(=O)N[C@@H](CCCCN)C(=O)N[C@@H](Cc1cccs1)C(N)=O` [UP07] (H-KRL[2Thi]KKLLKYLRK[2Thi]-NH2) gave an MIC (E. coli ATCC 25922) of 1 mg/L (≈ 0.528 µM), an MIC (P. aeruginosa ATCC 27853) of 1 mg/L (≈ 0.528 µM) and an MIC [2] of 4 mg/L (≈ 2.11 µM). For the same compound, the MIC (A. baumannii ATCC 19606) was 2 mg/L (≈ 1.06 µM), the MIC [3] was 2 mg/L (≈ 1.06 µM) and the MIC (S. aureus ATCC 25923) was 1 mg/L (≈ 0.528 µM). For the same compound, the MIC (C. albicans ATCC 10231) was 4 mg/L (≈ 2.11 µM), the “Percent of remained peptide amount after incubation (%)” value ([4]; S. aureus ATCC 25923 culture supernatant (MH broth), pH 8.0, 0.22 μm filtered, peptide 0.5 mg/mL, 37°C, 24 h, RP-HPLC) was 24.86 ± 3.88% and the “Hemolysis rate (%)” value (human erythrocytes; 64 μM) was 18.23 ± 2.76 %. The “Hemolysis rate (%)” value (human erythrocytes; 128 μM) was 30.10 ± 2.61 %, the IC50 (RAW 264.7 cells) was 17.5 ± 2.99 µM and the metabolised at 2 h, 0.1 mg/mL (human plasma proteases) was greater than 40%. The metabolised at 4 h, 0.1 mg/mL (human plasma proteases) was greater than 50%.
For KRLFKRLFKYLRRF, the fragment found [1] was “(K) YLRRF 10–14, major, 12 h; also recorded: (K) RLFKRLFKYLRRF 2–14, major, 12 h” and the fragment found (Trypsin) was “(R) RF 13–14, major, 18 h; also recorded: (K) YLRR (F) 10–13, major, 18 h; also recorded: (R) F 14, major, 18 h; also recorded: (K) YLR (R) 10–12, major, 18 h”.
For KRLFKKLLKYLRK[2Thi], the fragment found [1] was “(L) FKKLLKYLRKThi 4–14, major, 12 h” and the fragment found (Trypsin) was “(K) Thi 14, major, 18 h; also recorded: (K) KLLK (Y) 6–9, major, 18 h; also recorded: (R)LFKK (L) 3–6, major, 18 h; also recorded: (K) LLK (Y) 7–9, major, 18 h; also recorded: (K) YLR (K) 10–12, major, 18 h; also recorded: (R) LFK (K) 3–5, major, 18 h”.
With `CC(C)C[C@H](NC(=O)[C@H](CCCCN)NC(=O)[C@H](CCCCN)NC(=O)[C@H](Cc1ccccc1)NC(=O)[C@H](CC(C)C)NC(=O)[C@H](CCCNC(=N)N)NC(=O)[C@@H](N)CCCCN)C(=O)N[C@@H](CC(C)C)C(=O)N[C@@H](CCCCN)C(=O)N[C@@H](Cc1ccc(O)cc1)C(=O)N[C@@H](CC(C)C)C(=O)N[C@@H](CCCNC(=N)N)C(=O)N[C@H](CCCCN)C(=O)N[C@@H](Cc1ccccc1)C(N)=O` [DP03] (H-KRLFKKLLKYLR[dK]F-NH2) the MIC (E. coli ATCC 25922) was 1 mg/L (≈ 0.532 µM), the MIC (P. aeruginosa ATCC 27853) was 1 mg/L (≈ 0.532 µM) and the MIC [2] was 8 mg/L (≈ 4.25 µM). It also gave an MIC (A. baumannii ATCC 19606) of 2 mg/L (≈ 1.06 µM), an MIC [3] of 2 mg/L (≈ 1.06 µM) and an MIC (S. aureus ATCC 25923) of 1 mg/L (≈ 0.532 µM). The MIC (C. albicans ATCC 10231) was 4 mg/L (≈ 2.13 µM), the remaining at 24 h, 0.5 mg/mL ([4]; Staphylococcus aureus, S. aureus ATCC 25923 culture supernatant, pH 8) was 73.5 ± 4.83% and the “Hemolysis rate (%)” value (human erythrocytes; 64 μM) was 41.96 ± 4.14%. For the same compound, the “Hemolysis rate (%)” value (human erythrocytes; 128 μM) was 51.55 ± 3.89%, the IC50 (RAW 264.7 cells) was 45 ± 5.96 µM and the metabolised at 2 h, 0.1 mg/mL (human plasma proteases) was greater than 40%. The metabolised at 4 h, 0.1 mg/mL (human plasma proteases) was greater than 50%.
